22 compounds from ChEMBL document CHEMBL1909046, “DrugMatrix in vitro pharmacology data” can be followed below.

The nature of assay [1]: DRUGMATRIX: Atrial Natriuretic Factor (ANF) radioligand binding (ligand: [125I] ANF (rat)). The settings on record: Not Active = under 50% inhibition at 10 µM. Type of assay: cell membranes, Cavia porcellus, Dunkin-Hartley, Adrenal gland, Membrane.
Assay [2] deals with T1, Muscarinic acetylcholine receptor M2 (Homo sapiens, UniProt P08172).
T1 sequence (P08172 whole entry): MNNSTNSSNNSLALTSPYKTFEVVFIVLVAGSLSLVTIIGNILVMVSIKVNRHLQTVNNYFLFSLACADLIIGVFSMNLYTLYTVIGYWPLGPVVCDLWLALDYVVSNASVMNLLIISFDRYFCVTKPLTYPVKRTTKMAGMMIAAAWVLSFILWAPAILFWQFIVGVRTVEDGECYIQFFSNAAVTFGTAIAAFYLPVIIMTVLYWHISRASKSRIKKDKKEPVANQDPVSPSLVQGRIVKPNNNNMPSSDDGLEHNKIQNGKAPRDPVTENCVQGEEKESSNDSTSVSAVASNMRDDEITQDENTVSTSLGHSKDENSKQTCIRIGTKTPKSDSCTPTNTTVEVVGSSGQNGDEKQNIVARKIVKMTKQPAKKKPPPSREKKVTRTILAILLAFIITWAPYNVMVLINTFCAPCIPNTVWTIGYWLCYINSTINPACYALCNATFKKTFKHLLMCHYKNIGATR
It counts as cell membranes, CHO-K1, Membrane. The note with it: cho-k1.

Assay [3] deals with T2, Muscarinic acetylcholine receptor M4 (Homo sapiens, UniProt P08173).
T2 sequence (P08173 whole entry): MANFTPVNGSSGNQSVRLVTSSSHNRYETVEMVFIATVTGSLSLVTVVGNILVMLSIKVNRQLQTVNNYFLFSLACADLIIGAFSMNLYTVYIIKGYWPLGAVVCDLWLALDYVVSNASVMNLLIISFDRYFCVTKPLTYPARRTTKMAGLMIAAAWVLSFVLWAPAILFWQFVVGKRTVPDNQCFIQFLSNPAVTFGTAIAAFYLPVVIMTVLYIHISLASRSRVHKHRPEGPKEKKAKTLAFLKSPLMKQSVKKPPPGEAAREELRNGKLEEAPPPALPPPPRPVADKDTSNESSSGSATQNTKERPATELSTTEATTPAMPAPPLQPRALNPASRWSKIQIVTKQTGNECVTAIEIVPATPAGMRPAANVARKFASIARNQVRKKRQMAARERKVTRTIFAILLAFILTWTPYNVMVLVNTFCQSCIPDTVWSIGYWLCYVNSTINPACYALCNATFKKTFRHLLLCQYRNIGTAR
Type of assay: cell membranes, CHO-K1, Membrane. The note with it: cho-k1.

Assay [4] deals with 5-hydroxytryptamine receptor 1B (Rattus norvegicus, UniProt P28564). It counts as cell membranes, Wistar, Cerebral cortex, Membrane.
The target in another assay is T3, Adenosine receptor A3 (Homo sapiens, UniProt P0DMS8).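 Further: radioligand binding assay with AB-MECA serving as the labeled ligand; in other assays of this panel Not Active means under 50% inhibition at 10 µM.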
T3 sequence (P0DMS8 whole entry): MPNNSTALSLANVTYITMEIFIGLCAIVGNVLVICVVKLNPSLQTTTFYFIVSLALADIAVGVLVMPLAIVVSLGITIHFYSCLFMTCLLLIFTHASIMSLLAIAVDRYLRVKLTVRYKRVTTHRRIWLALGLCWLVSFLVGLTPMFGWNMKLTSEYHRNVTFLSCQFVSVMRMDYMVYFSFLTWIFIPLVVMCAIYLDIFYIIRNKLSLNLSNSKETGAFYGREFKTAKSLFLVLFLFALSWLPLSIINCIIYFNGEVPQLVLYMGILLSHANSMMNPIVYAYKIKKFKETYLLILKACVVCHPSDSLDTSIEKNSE
It counts as cell membranes, CHO-K1, Membrane.

5-hydroxytryptamine receptor 1B, sequence (P28564 whole entry): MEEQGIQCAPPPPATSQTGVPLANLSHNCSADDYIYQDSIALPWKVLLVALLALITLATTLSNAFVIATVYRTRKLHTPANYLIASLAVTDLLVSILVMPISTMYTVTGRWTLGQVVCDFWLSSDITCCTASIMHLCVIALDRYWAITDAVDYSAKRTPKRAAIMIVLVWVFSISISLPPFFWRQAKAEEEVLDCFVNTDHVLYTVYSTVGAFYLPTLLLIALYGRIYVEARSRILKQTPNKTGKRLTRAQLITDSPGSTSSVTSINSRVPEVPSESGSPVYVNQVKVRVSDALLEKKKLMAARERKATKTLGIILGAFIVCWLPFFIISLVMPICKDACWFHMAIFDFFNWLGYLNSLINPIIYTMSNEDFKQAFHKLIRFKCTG

As to `Cc1ncc([N+](=O)[O-])n1CCO` [METRONIDAZOLE], the IC50 entry (in assay [1]; in assay [2]; in assay [3]; in assay [4]; on Adenosine receptor A3 (cho-k1)) was “Not Active” each time. Further, in assay [1], the Ki entry is reported as “Not Active”.

Regarding `CC(C)(C(=O)c1cccnc1)c1cccnc1` [METYRAPONE], the IC50 result (in assay [1]; in assay [2]; in assay [3]; in assay [4]; at Adenosine receptor A3 (cho-k1)) was “Not Active” in each case. Moreover, the Ki entry in assay [1] is “Not Active”.

Consider `Oc1ccc(OCc2ccccc2)cc1` [MONOBENZONE], for which the IC50 entry (in assay [1]; in assay [2]; in assay [3]; in assay [4]; on Adenosine receptor A3 (cho-k1)) was “Not Active” throughout. In addition, the Ki entry in assay [1] was “Not Active”.

On to `CC(C)(Oc1ccc(C2CCCc3ccccc32)cc1)C(=O)O` (configuration not stated) [NAFENOPIN], for which the IC50 entry (in assay [1]; in assay [2]; in assay [3]; in assay [4]; against Adenosine receptor A3 (cho-k1)) was “Not Active” in each case. Also, the Ki entry in assay [1] is given as “Not Active”.

On to `COc1ccc2cc([C@H](C)C(=O)O)ccc2c1` [NAPROXEN], for which the IC50 result (in assay [1]; in assay [2]; in assay [3]; in assay [4]; at Adenosine receptor A3 (cho-k1)) was “Not Active” in each case. Also, in assay [1], the Ki entry is “Not Active”.

In the case of `CC(C)[C@H]1CC[C@H](C(=O)N[C@H](Cc2ccccc2)C(=O)O)CC1` [NATEGLINIDE], the IC50 entry (in assay [1]; in assay [2]; in assay [3]; in assay [4]; against Adenosine receptor A3 (cho-k1)) was “Not Active” in each case. Besides, the Ki result in assay [1] is recorded as “Not Active”.

As for `CCN[C@@H]1C[C@H](N)[C@@H](O[C@H]2OC(CN)=CC[C@H]2N)[C@H](O)[C@H]1O[C@H]1OC[C@](C)(O)[C@H](NC)[C@H]1O` [NETILMICIN], the IC50 result (in assay [1]; in assay [2]; in assay [3]; in assay [4]; at Adenosine receptor A3 (cho-k1)) was “Not Active” each time. Further, the Ki result in assay [1] was “Not Active”.

In the case of `COC(=O)C1=C(C)NC(C)=C(C(=O)OCC(C)C)C1c1ccccc1[N+](=O)[O-]` (configuration not stated) [NISOLDIPINE], the IC50 entry is “Not Active” in assay [1]; “Not Active” in assay [2]; “Not Active” in assay [3]; “Not Active” in assay [4]; 7.12 µM at Adenosine receptor A3 (read-out: IC50). The Ki entry in assay [1] is “Not Active”; on Adenosine receptor A3 (read-out: Ki), 4.02 µM.

Take `CCOC(=O)C1=C(C)NC(C)=C(C(=O)OC)C1c1cccc([N+](=O)[O-])c1` (configuration not stated) [NITRENDIPINE]: the 50% inhibitory concentration (IC50) result (in assay [1]; in assay [2]; in assay [3]; in assay [4]; against Adenosine receptor A3 (cho-k1)) was “Not Active” each time. Besides, in assay [1], the Ki result was “Not Active”.

For the compound `C#C[C@]1(OC(C)=O)CC[C@H]2[C@@H]3CCC4=CC(=O)CC[C@@H]4[C@H]3CC[C@@]21C` [NORETHINDRONE ACETATE], the IC50 result (in assay [1]; in assay [2]; in assay [3]; in assay [4]; against Adenosine receptor A3 (cho-k1)) was “Not Active” each time. For the same compound, in assay [1], the Ki result was “Not Active”.

With `COc1ccc2[nH]c([S+]([O-])Cc3ncc(C)c(OC)c3C)nc2c1` (configuration not stated) [OMEPRAZOLE], the IC50 entry (in assay [1]; in assay [2]; in assay [3]; in assay [4]; against Adenosine receptor A3 (cho-k1)) was “Not Active” in each case. The Ki result in assay [1] was “Not Active”.

Turning to `Cc1nccn1CC1CCc2c(c3ccccc3n2C)C1=O` (configuration not stated) [ONDANSETRON], the IC50 entry (in assay [1]; in assay [2]; in assay [3]; in assay [4]; at Adenosine receptor A3 (cho-k1)) was “Not Active” each time. For the same compound, the Ki result in assay [1] is on record as “Not Active”.

Take `CCn1cc(C(=O)O)c(=O)c2cc(F)c(N3CCN(C)CC3)cc21` [PEFLOXACIN]: the IC50 result (in assay [1]; in assay [2]; in assay [3]; in assay [4]; against Adenosine receptor A3 (cho-k1)) was “Not Active” in each case. Besides, in assay [1], the Ki result is given as “Not Active”.

In the case of `CCCCOc1ccc(OCCCN2CCOCC2)cc1` [PRAMOXINE], the IC50 entry (in assay [1]; in assay [2]; in assay [3]; in assay [4]; against Adenosine receptor A3 (cho-k1)) was “Not Active” each time. In addition, the Ki entry in assay [1] is recorded as “Not Active”.

With `O=C(C1CCCCC1)N1CC(=O)N2CCc3ccccc3C2C1` (configuration not stated) [PRAZIQUANTEL], the IC50 result (in assay [1]; in assay [2]; in assay [3]; in assay [4]; on Adenosine receptor A3 (cho-k1)) was “Not Active” each time. The Ki result in assay [1] is recorded as “Not Active”.

As for `CCN(CC)CCOC(=O)c1ccc(N)cc1` [PROCAINE], the IC50 result (in assay [1]; in assay [2]; in assay [3]; in assay [4]; on Adenosine receptor A3 (cho-k1)) was “Not Active” in each case. Also, the Ki result in assay [1] is listed as “Not Active”.

On to `CCCN(CCC)C(=O)C(CCC(=O)O)NC(=O)c1ccccc1` (configuration not stated) [PROGLUMIDE], for which the IC50 entry (in assay [1]; in assay [2]; in assay [3]; in assay [4]; against Adenosine receptor A3 (cho-k1)) was “Not Active” throughout. In assay [1], the Ki entry is “Not Active”.

Turning to `NC(=O)c1cnccn1` [PYRAZINAMIDE], the half-inhibitory concentration (IC50) result (in assay [1]; in assay [2]; in assay [3]; in assay [4]; against Adenosine receptor A3 (cho-k1)) was “Not Active” throughout. In addition, the inhibition constant Ki result in assay [1] is on record as “Not Active”.

Regarding `Cc1cc2cc3c(C)cc(=O)oc3c(C)c2o1` [TRIOXSALEN], the IC50 entry (in assay [1]; in assay [2]; in assay [3]; in assay [4]; against Adenosine receptor A3 (cho-k1)) was “Not Active” in each case. Also, in assay [1], the Ki result is given as “Not Active”.

Consider `CCCC(CCC)C(=O)O` [VALPROIC ACID], for which the 50% inhibitory concentration (IC50) entry (in assay [1]; in assay [2]; in assay [3]; in assay [4]; against Adenosine receptor A3 (cho-k1)) was “Not Active” each time. The Ki result in assay [1] is “Not Active”.

As to `CCC1=C[C@@H]2CN(C1)Cc1c([nH]c3ccccc13)[C@@](C(=O)OC)(c1cc3c(cc1OC)N(C)[C@H]1[C@@](O)(C(=O)OC)[C@H](OC(C)=O)[C@]4(CC)C=CCN5CC[C@]31[C@@H]54)C2` [VINORELBINE], the IC50 result (in assay [1]; in assay [2]; in assay [3]; in assay [4]; on Adenosine receptor A3 (cho-k1)) was “Not Active” each time. In assay [1], the inhibition constant (Ki) result was “Not Active”.

Consider CADMIUM DICHLORIDE, for which the IC50 entry (in assay [1]; in assay [2]; in assay [3]; in assay [4]; against Adenosine receptor A3 (cho-k1)) was “Not Active” throughout. Moreover, the Ki result (in assay [1]; in assay [2]; in assay [3]; in assay [4]; on Adenosine receptor A3 (cho-k1)) was “Not Active” in each case.

Usually IC50 stands for the concentration needed to halve the response being measured. Broadly, the Ki is the dissociation constant of the complex between target and ligand, obtained from inhibition or displacement.
